From ChEMBL document CHEMBL1201862, “PubChem BioAssay data set” (2004) come the findings set out here.

Broadly, the EC50 is the concentration needed to bring the measured effect to its halfway point. For orientation: IC50 means the point on the concentration scale where inhibition reaches its midpoint. A word on the AC50: it is the concentration at which the activity in the assay is half-maximal.

The nature of test [1]: NIH3T3 cell viability loss – ATP luminescence, mouse fibroblasts, counter-screen, dose response (AID 2010).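 Also: cells exposed to compound for about 90 hours before reading.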 Type of test: functional, cell-based. Background: Counterscreens check selectivity or assay interference.
A short description of test [2]: Trypanosoma cruzi growth suppression in host cells – NIH3T3 host cells, beta-gal luminescence, confirmation (AID 2044).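 Also: intracellular parasites grown in NIH/3T3 mouse fibroblasts as host cells; luminescent beta-galactosidase reporter signal from transgenic T. cruzi replicating inside host cells; inhibitors lower the luminescence signal.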 Format: functional, cell-based.
Test [3] in a line: viability of uninfected HEp-2 cells – cell-based, HTS, cytotoxicity control for RSV inhibitor project, dose response (AID 2410). The settings on record: human respiratory syncytial virus. Type of test: functional.
The target of test [4] is Disintegrin and metalloproteinase domain-containing protein 17 (Homo sapiens, UniProt P78536). As to the kind of experiment: exosite inhibitors of ADAM17, dose response, biochemical (AID 743260).
A short description of test [5]: inhibition of ADAM10 peptide cleavage – biochemical, FRET peptide substrate, recombinant human ADAM10, selectivity assay for ADAM17 exosite inhibitor project, dose response (AID 743259).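 Also: ADAM10 enzyme cleaving a FRET peptide substrate.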
Test [6] is described as follows: microbe, parasite or virus in culture. Format: functional. The settings on record: Mycobacterium tuberculosis.
Test [7] is described as follows: viability loss in human Jurkat cells – cell-based, luminescence, cytotoxicity control for P. falciparum gametocyte viability project, dose response (AID 1117277).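 Also: potency reflects loss of cellular ATP meaning fewer viable cells.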 Format: functional.
Test [8] is described as follows: viability inhibitors of stage V gametocytes – luminescence, dose response (AID 1117278).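 Also: gametocytes exposed to compound for 24 hours.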 Type of test: functional, cell-based.
A short description of test [9]: general cell-killing toxicity readout – plate reader, dry powder samples, cytotoxicity control for PAX8 inhibitor project, dose response (AID 743021). Format: functional, cell-based.
The nature of test [10]: IGROV1 cell killing – plate reader, dry powder samples, PAX8 inhibitor project, dose response (AID 743043). The settings on record: IGROV-1. Type of test: functional, cell-based.
Test [11] is described as follows: OVCAR8 cell viability loss – plate reader, dry powder samples, PAX8 project, dose response (AID 743197). Format: functional, cell-based. Conditions: OVCAR-8.
A further test has as its target Paired box protein Pax-8 (Homo sapiens, UniProt Q06710). As to the kind of experiment: PAX8 transcriptional activity inhibition in RMG-I – RMG-I cells, luciferase, cherry-pick, dose response (AID 687027).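 Also: luciferase reporter driven by Pax8 target thyroperoxidase promoter measured by SteadyGlo luminescence.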 Type of test: functional, cell-based.
A further test addresses Ephrin type-A receptor 4 (Mus musculus, UniProt Q03137). Put plainly: EphA4 ligand-binding antagonists – biochemical, colorimetric, mouse EphA4, primary screen (AID 689). Format: functional.
The target in test [12] is T1, Replicative DNA helicase DnaB (Mycobacterium tuberculosis, UniProt P9WMR3).
T1 sequence (P9WMR3 whole entry): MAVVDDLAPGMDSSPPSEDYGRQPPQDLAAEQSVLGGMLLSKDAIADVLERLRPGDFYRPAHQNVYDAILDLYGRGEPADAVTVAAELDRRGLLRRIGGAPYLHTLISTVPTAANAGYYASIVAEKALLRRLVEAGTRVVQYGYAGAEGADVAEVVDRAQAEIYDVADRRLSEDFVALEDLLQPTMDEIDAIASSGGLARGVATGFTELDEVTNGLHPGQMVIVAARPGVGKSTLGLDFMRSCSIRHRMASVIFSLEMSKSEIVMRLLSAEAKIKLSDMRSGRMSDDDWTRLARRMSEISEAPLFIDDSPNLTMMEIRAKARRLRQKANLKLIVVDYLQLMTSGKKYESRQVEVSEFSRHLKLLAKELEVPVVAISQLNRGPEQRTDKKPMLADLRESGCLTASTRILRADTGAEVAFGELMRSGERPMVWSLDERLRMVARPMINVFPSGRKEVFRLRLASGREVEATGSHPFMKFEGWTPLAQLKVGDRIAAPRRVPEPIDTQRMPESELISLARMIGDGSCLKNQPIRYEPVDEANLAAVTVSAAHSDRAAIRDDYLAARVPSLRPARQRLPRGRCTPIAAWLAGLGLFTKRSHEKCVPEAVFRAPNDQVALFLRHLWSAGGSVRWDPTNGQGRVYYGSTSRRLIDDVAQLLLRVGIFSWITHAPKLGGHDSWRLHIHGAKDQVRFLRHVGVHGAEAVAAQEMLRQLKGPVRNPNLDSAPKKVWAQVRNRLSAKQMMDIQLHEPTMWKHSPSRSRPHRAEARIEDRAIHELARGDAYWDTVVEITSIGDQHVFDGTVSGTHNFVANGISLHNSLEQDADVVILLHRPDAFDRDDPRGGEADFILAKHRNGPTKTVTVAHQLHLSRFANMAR
Put plainly: DnaB intein splicing inhibitors, dose response, biochemical, cell-free fluorescence (AID 449749). Format: functional.

Test [13] can be described thus: THP-1 cell cytotoxicity, dose response, cytotoxicity control for non-replicating M. tuberculosis project (AID 489025). Type of test: functional.
The test system of the next test is CHO. As to the kind of experiment: CHO cell viability loss, potency – luminescence, cytotoxicity control for TLR9-MyD88 binding inhibitor project, dose response (AID 588339).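 Also: CHO cells stably coexpressing TLR9 and MyD88 fusions from primary screen; compound exposure lasted 48 hours before viability readout.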 Type of test: functional, cell-based, hamster. Conditions: Cricetulus griseus.
Test [14] addresses T2, Heat shock factor protein 1 (Mus musculus, UniProt P38532).
T2 sequence (P38532 whole entry): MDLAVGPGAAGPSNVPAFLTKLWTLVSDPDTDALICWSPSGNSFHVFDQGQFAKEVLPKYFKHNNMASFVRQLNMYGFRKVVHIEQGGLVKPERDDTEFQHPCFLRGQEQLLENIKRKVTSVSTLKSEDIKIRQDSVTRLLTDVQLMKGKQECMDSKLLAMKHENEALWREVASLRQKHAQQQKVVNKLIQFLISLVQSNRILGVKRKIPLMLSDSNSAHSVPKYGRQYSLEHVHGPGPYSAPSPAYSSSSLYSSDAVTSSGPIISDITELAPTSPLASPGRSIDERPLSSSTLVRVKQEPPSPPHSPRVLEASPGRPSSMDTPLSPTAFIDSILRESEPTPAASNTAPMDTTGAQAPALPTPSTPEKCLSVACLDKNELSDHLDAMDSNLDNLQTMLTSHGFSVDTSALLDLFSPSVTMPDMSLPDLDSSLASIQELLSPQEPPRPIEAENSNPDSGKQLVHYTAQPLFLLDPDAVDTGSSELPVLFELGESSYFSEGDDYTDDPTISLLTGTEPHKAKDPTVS
As to the kind of experiment: decrease of HSF1-responsive luciferase luminescence – cell-based, NIH3T3, dose retest, confirmation (AID 2382).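 Also: NIH3T3 fibroblasts with HSF1-driven luciferase reporter stressed by proteasome inhibitor MG132; luminescence from HSF1-driven luciferase expression after 8 hours of MG132 stress.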 Type of test: functional.

In the next test the target is Beta Lactamase (Pseudomonas aeruginosa, UniProt Q932Y6). As to the kind of experiment: BLA reporter interference, concentration series – BLA reporter cells, FRET fluorescence, artefact control for TLR9-MyD88 binding inhibitor project, dose response (AID 588341).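 Also: cell based assay in CHO-K1 cells stably expressing beta-lactamase.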 Format: cell-based.
The next test concerns the target T3, Protein RecA (Mycobacterium tuberculosis, UniProt P9WHJ3).
T3 sequence (P9WHJ3 whole entry): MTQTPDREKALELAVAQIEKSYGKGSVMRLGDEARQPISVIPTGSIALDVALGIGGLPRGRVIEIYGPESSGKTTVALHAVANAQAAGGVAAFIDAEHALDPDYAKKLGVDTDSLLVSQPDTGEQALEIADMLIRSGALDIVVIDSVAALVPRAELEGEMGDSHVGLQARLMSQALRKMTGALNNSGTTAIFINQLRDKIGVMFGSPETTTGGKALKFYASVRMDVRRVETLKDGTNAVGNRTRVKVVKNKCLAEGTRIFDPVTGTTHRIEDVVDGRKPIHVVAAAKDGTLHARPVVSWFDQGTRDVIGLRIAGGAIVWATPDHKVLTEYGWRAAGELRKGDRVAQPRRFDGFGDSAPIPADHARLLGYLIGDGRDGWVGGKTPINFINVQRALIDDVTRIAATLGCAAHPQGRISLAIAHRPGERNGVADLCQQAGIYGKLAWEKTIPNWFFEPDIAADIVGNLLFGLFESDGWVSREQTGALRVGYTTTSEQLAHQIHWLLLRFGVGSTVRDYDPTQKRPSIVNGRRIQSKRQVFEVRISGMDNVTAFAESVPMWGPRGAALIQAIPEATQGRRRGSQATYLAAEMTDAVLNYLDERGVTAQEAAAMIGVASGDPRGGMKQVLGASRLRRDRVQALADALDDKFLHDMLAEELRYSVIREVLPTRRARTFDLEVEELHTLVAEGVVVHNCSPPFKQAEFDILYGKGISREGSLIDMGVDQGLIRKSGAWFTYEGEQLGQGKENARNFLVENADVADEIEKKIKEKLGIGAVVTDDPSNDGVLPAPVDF
As to the kind of experiment: Fluorescence Cell-Free Homogeneous Dose Retest to Identify Inhibitors of RecA-Intein Splicing Activity. [Related pubchem assays (depositor defined):AID2097, AID2223, AID489010, AID492950]. Type of test: functional.

The next test in a line: cells. Type of test: functional.
For test [15], the target named is T4, Mannose-6-phosphate isomerase (Homo sapiens, UniProt P34949).
T4 sequence (P34949 whole entry): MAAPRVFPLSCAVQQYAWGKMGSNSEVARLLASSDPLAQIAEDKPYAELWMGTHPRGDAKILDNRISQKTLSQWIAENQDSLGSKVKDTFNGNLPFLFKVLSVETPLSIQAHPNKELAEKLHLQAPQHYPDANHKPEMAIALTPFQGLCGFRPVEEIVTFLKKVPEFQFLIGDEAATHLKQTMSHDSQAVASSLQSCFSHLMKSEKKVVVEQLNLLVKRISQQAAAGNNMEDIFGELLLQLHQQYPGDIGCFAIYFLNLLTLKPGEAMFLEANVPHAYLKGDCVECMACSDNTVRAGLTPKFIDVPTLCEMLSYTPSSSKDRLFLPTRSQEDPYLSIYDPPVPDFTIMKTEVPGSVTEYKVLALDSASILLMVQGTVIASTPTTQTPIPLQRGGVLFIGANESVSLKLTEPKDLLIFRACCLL
Put plainly: MPI inhibition at elevated mannose 6-phosphate – biochemical, fluorescence intensity, high mannose 6-phosphate, primary screen (AID 1220).

The source made the active and inactive calls. Where only a bound is given, the exact number is not on record here.

Chain of Ephrin type-A receptor 4 (Q03137 whole entry): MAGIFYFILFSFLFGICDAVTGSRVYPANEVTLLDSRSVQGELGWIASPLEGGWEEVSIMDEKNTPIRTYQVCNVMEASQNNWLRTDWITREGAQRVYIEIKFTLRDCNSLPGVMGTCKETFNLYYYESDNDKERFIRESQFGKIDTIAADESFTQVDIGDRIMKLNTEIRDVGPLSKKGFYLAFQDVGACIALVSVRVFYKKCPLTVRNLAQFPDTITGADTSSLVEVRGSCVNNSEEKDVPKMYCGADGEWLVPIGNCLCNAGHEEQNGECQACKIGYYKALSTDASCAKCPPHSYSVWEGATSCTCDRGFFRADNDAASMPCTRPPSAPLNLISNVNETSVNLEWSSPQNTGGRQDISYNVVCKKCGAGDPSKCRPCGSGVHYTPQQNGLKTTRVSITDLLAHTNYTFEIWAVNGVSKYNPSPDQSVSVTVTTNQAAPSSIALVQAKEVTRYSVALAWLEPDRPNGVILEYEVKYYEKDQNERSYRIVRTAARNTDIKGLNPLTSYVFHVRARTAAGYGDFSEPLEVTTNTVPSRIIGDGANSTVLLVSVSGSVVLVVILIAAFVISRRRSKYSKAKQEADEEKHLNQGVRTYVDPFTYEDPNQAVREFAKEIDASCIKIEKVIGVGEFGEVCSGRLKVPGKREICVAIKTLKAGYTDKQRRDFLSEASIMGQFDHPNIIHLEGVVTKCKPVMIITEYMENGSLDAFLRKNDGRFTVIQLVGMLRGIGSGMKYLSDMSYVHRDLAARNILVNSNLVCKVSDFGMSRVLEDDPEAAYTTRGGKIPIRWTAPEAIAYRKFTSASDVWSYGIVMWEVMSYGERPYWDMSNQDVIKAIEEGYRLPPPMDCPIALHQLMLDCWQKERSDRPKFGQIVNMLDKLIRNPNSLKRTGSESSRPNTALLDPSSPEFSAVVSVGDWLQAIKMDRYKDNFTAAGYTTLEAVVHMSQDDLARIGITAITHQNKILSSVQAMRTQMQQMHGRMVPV
Chain of Disintegrin and metalloproteinase domain-containing protein 17 (P78536 whole entry, the tested form may be a part): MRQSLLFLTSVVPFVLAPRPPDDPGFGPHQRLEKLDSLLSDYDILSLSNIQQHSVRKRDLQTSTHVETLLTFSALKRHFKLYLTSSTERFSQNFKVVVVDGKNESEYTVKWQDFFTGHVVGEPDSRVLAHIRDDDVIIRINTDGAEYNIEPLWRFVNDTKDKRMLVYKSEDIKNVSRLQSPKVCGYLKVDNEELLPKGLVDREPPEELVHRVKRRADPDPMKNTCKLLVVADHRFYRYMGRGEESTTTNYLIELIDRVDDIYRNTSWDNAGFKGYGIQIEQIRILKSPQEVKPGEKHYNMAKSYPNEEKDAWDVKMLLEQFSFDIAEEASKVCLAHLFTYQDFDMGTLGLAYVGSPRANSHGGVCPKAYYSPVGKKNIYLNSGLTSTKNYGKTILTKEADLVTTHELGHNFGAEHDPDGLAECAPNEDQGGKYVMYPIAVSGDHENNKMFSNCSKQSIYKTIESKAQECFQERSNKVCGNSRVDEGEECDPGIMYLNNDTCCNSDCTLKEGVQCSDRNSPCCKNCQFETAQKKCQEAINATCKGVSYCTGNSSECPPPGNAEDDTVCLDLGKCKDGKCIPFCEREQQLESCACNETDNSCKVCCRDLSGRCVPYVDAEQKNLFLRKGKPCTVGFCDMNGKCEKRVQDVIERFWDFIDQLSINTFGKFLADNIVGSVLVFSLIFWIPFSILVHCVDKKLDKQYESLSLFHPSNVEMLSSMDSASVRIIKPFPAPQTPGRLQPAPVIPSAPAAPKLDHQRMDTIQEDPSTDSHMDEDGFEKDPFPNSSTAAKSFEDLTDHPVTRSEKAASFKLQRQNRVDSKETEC
Chain of Paired box protein Pax-8 (Q06710 whole entry): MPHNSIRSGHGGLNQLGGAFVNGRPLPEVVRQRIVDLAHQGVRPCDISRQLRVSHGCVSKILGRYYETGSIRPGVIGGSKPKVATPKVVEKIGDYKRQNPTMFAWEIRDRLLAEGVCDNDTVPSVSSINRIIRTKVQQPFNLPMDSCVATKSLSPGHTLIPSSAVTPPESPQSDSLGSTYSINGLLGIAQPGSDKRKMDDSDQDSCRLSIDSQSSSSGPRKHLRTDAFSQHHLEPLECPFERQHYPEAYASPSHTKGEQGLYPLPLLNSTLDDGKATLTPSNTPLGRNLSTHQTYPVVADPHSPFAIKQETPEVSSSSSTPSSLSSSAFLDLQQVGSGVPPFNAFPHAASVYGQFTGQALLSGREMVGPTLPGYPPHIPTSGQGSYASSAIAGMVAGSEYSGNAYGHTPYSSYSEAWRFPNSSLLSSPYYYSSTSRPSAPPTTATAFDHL
Chain of Beta Lactamase (Q932Y6 whole entry): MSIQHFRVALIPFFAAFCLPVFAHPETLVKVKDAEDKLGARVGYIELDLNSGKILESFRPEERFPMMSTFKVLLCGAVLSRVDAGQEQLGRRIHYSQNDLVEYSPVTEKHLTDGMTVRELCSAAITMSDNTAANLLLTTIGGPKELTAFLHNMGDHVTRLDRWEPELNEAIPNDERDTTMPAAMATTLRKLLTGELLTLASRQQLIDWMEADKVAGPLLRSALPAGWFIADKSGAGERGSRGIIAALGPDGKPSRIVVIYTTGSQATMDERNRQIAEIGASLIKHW

Turning to `CCOC(=O)c1sc(NC(=O)CN2C(=O)NC3(CC(C)CC(C)(C)C3)C2=O)cc1C` (stereo unspecified), the 50% effective concentration (EC50) in test [1] was 9.25 µM (active); in test [2], 2.17 µM (active). For the same molecule, the CC50 is 14.9 µM (active) in test [3] and 30.6 µM (active) in test [6]. For the same molecule, the IC50 in [4] is > 69.5 µM (inactive); in test [5] it was 10.6 µM (inactive).
`COc1ccc(C(=O)C[n+]2cc(-c3ccc(OC)cc3)n3c2CCCC3)cc1`: the EC50 is > 60 µM (not active) in [1] and 0.243 µM (active) in test [2]. For the same molecule, the IC50 in [7] is > 83.3 µM (inactive); in test [8], > 109 µM (inactive).
For the molecule `C[C@@H]1CN([C@H](C)CO)C(=O)c2cc(NC(=O)Nc3ccc(C(F)(F)F)cc3)ccc2O[C@@H](C)CCCCO[C@H]1CN(C)Cc1ccc2c(c1)OCO2`, the AC50 in test [9] is 66.4 µM (active); in [10], 26.7 µM (active); in test [11], 31.6 µM (active); on Paired box protein Pax-8 it was 7.63 µM (active).
For the molecule `C=CCn1c(SCC(=O)Nc2ncc(Cc3cc(C(F)(F)F)ccc3Cl)s2)nnc1-c1ccncc1`, the IC50 at Ephrin type-A receptor 4 is > 100 µM (not active).
As for `CCOC(=O)CN1C2=NCCN2c2ccccc21`, the IC50 in test [7] is > 83.4 µM (inactive); in test [8] it was > 109 µM (inactive).
On to `CSc1ccccc1/N=C/c1nc(-c2ccccc2)oc1O`, for which the IC50 at Ephrin type-A receptor 4 is 37.6 µM (active).
Turning to `CCS(=O)(=O)c1ncc(Cl)c(C(=O)Nc2ccc(C)cc2)n1`, the EC50 in test [1] is 4.9 µM (active); in test [2], 2.31 µM (active); in test [14] it was 5.18 µM (inconclusive); on Protein RecA, 6.94 µM (active). Moreover, the AC50 in test [9] was 34.9 µM (active); in [12] it was 5.56 µM (active); at Paired box protein Pax-8, 17.2 µM (active). Further, the CC50 in test [13] was 21 µM (active). The IC50 in the test on CHO is 3.98 µM (active); at Beta Lactamase, 7.65 µM (active); in “cells” it was 5.21 µM (active).
As to `CN(Cc1ccc(F)cc1)C(=O)c1cccc(OCc2ccccc2)c1`, the IC50 in test [4] was > 69.5 µM (inactive); in [5], 21.5 µM (inactive).
Take `Cc1sc2c(=O)n3c(nc2c1C(=O)NC1CCCCC1)CCCCC3`: the IC50 is > 83.3 µM (inactive) in test [7] and > 109 µM (inactive) in test [8].
Turning to `Cc1noc(C)c1C(=O)OCC(=O)Nc1ccccc1Oc1ccccc1`, the IC50 in [4] and in [5] was > 69.5 µM (inactive) in each case.
Consider `CCOC(=O)c1ccc(NC(=O)CCOc2ccc(C)cc2)cc1`, for which the results for the IC50 in [7] and in test [8] were > 83.3 µM (inactive) and > 109 µM (inactive), respectively.
On to `Cn1cc([N+](=O)[O-])c(C(=O)Nc2ccc3c(c2)OCCO3)n1`, for which, at Ephrin type-A receptor 4, the IC50 was > 100 µM (not active).
In the case of `COCCO/C(O)=C1\C(C)=NC2(O)c3ccccc3C(=O)C12O` (stereo unspecified), the IC50 in test [15] is > 50 µM (not active).
`COc1ccc(NS(=O)(=O)c2ccc(OC)c(NC(=O)CCC3CCCC3)c2)cc1`: the IC50 in test [4] and in test [5] was > 69.5 µM (inactive) each time.
